In US20150079029A1, “METHODS AND COMPOSITIONS FOR INHIBITING ANGIOGENESIS” (Oncology Research International Limited, priority 2006, published 2015):

What was measured:
[1] = system: angiogenesis induced by bFGF in angiosponges; assay: AngioSponge assay: bFGF-induced neovascularisation of implanted gelfoam, CD31 staining; assay type: in vivo, C3H/Hej mice; conditions: i.p. once daily for 10 days, dioscin 10, deltonin 10, trillin 60, prosapogenin A 20, sorafenib 60 mg/kg; for Average number of blood vessels (CD31 counts): sponges excised Day 11
Source text: The AngioSponge™ assay enables slow release of agarose-captured growth factor, which stimulates endothelial cell proliferation and migration, and provides a tissue-like matrix for neovascularisation. The assay can be therefore be used to gauge the efficacy of treatments designed to inhibit angiogenesis, determined by counting blood vessels after CD31 immunohistochemical staining of endothelial cells (McCarty et al, International Journal of Oncology, 21:5-10, 2002).
Gelfoams (Pharmacia & Upjohn) were cut into approximately 7×7×7 mm pieces, under sterile conditions, and pre-soaked over night with sterile phosphate buffered saline. The hydrated gelfoams were then partially dried. Growth factor (bFGF) was diluted to an initial concentration of 2 μg/mL in warm (37° C.) 0.4% agarose. The partially dried gelfoams were placed in the growth factor solution, or in warm 0.4% agarose without growth factor, and then transferred to a Petri dish containing warm 0.4% agarose (1:1 dilution, final growth factor concentration 1 μg/mL) for polymerisation and solidification.
70 female C3H/Hej mice were microchipped, weighed and randomised based on body weight into 7 groups with 10 mice per group. For implantation, the mice were anaesthetised by halothane inhalation. A small channel forged with a trocar needle between the 3rd and 4th mammary gland, the sponge was inserted to the full depth of the channel and the incision closed with a wound clip.
The compounds were formulated in N-methylpyrrolidone (NMP):PEG300:Water (1:9:10, v/v). Dosing was established on the basis of in vitro IC50 data and preliminary toxicity studies. Compounds were administered daily by intraperitoneal injection, at a dosing volume of 10 mL/kg, once daily for the study period as shown in Table 5.
Treatment was started when all the animals had recovered fully from anaesthesia, and continued for 10 days. On Day 11, the angiosponges were excised and snap frozen in liquid nitrogen with OCT for CD31 staining on frozen sections.
CD31/PECAM-1 is an antigen present specifically on endothelial cells and can therefore be used as a marker for blood vessels. Frozen samples of the sponge were cryo-sectioned (12 μm), mounted on positively-charged Plus slides (Fisher Scientific), and air-dried for 30 minutes. Frozen sections were in turn fixed in cold acetone, acetone/chloroform (1:1, v/v), and acetone for 5 min each, and then washed with PBS (phosphate buffer saline). After blocking with PBS containing 5% normal horse serum and 1% normal goat serum, sections were incubated with PECAM-1 monoclonal rat anti-mouse CD31 antibody (1:5000 in blocking solution, PharMingen, San Diego, Calif.) for 4 hours at room temperature. The slides were then washed three times with PBS and incubated with adequate secondary anti-rat antibody. Positive reactions were visualized by incubating the slides in stable 3,3′-diaminobenzidine for 5-10 min. The sections were rinsed with distilled water, counter-stained with Gill's haematoxylin for 1 min, and mounted with Universal Mount (Research Genetics). […] Mouse placenta was used as a positive control. For quantification, 3 independent visual fields were chosen and positive stained spots or vessels with lumen were counted.
The Percent Induction for a treatment is the difference in CD31 counts between the treatment (+bFGF) and the vehicle alone (no bFGF), divided by the difference in CD31 counts between the vehicle with bFGF and the vehicle alone (no bFGF), expressed as a percentage.

[2] = system: angiogenesis induced by bFGF in angiochambers; assay: AngioChamber assay: bFGF-induced fibrous capsule formation and haemoglobin (Drabkin) blood content; assay type: in vivo, FvB mice; conditions: i.p. once daily for 5 days, dioscin 10, deltonin 10, trillin 60, prosapogenin A 20, sorafenib 60 mg/kg; for Average blood content (from haemoglobin content): Drabkin assay; for Average chamber weight: wet weight on Day 6
Source text: The AngioChamber™ assay utilises the normal physiological process of wound healing, which promotes the formation of a fibrous capsule around an implanted chamber (Wood et al, (2000) Cancer Research, 60(8):2178-89). The inclusion of bFGF in the chamber induces blood vessel development in the fibrous capsule. The assay therefore assesses the efficacy of treatments by gauging their effect both on the fibrous capsule formation, measured by the wet weight of the capsule at the termination of the study and by determination of blood vessel supply to the chamber by assaying for haemoglobin content. The haemoglobin content of the fibrous capsule is a measure of neovascularisation, which is assayed by the Drabkin Assay.
The angiochambers were porous tissue chambers made of perfluoro-alkoxy-Teflon and filled with 0.8% agar containing 20 IU/mL heparin, with or without 1 μg/mL human bFGF. Both ends of the chamber were sealed with removable caps of the same material. The chambers were filled under sterile conditions with 0.8% agar containing 20 IU/mL heparin, with or without 1 μg/mL human bFGF. The agarose solution was maintained at 37° C. prior to filling the chambers.
70 female FvB mice were microchipped, weighed and randomised based on body weight into 7 groups with 10 mice per group. For implantation, the mice were anaesthetised by halothane inhalation. Approximately 150 μL sterile filtered air was injected subcutaneously in the back of each mouse, between the shoulder blades, resulting in an air pocket in which a small incision was made and the chamber inserted. The wound was closed with two 1.4 mm wound clips.
The treatments, which were all formulated in NMP:PEG300:Water (1:9:10, v/v) and administered daily by intraperitoneal injection, were as given in the Table 7:
Treatment was started when all the animals had recovered fully from anaesthesia, and continued for 5 days. On Day 6, the vascularised fibrous chambers were removed and the wet weight recorded for each implant. The chamber from each mouse was then snap frozen with liquid nitrogen and stored at −20° C. until assessed for haemoglobin content.
The fibrous capsule samples were thawed and kept on ice during the procedure. Sterile water was added to each thawed sample, and the sample homogenised with an UltraTourax at high speed. To avoid cross-contamination, the UltraTourax was flushed for 30 seconds with 5 mL distilled water after homogenising each sample. The homogenate was transferred into 2 mL Eppendorf tubes and stored on ice. The Eppendorf tubes were centrifuged at 4° C. and high speed (14,000 relative centrifugal force (RCF)) for 60 min. 1.0-1.5 mL of the intermediate aqueous solution (homogenate), between the pellet and the fat layer, was then transferred to fresh labelled 1.5 mL Eppendorf tubes and stored on ice. 50 μL of each homogenate was transferred into separate wells of a 96-well plate. 50 μL of water was transferred into 2 wells as blanks. 50 μL of Drabkin's reagent was then added to each well and mixed. After 15 min incubation at room temperature, the absorbance of each sample at 540 nm was measured and the volume of blood for each sample calculated from a standard curve.
The Percent Induction for a treatment is the difference in blood content between the treatment (+bFGF) and the vehicle alone (no bFGF), divided by the difference in blood content between the vehicle with bFGF and the vehicle alone (no bFGF), expressed as a percentage.

aortic explants = assay: Vessel growth (sprouts and branches) from mouse aortic explants in collagen gel; assay type: cell-based, C57BL6/J mice; conditions: for Branches Mean / Sprouts Mean: 1 μL/mL DMSO, 6 days culture, 8 replicates
Protocol: Three male C57BL6/J mice (9 weeks old) were sacrificed by CO2 asphyxiation and the blood harvested by heart puncture using a 29 gauge needle. The aorta was then dissected (from the aortic arch to the pleural/peritoneal interface) and placed in ice-cold DMEM supplemented with 10 mM Hepes and penicillin/streptomycin.
The fibrous and adipose tissues surrounding the aorta were removed by microscopic dissection and the aorta flushed of blood using ice cold DMEM. The aorta was then longitudinally bisected and cut into approximately 1 mm squares. Individual pieces of aorta were embedded in a drop (20 μL) of collagen solution in the bottom of a well of a 24 well tissue culture plate. The plates were then placed at 37° C./5% CO2 for 10 minutes to polymerise the collagen into a gel. Media (0.3 mL) alone, containing DMSO or deltonin in DMSO was then added to each well to form a moat around the collagen gel.
Only the central 8 wells of each 24 well plate were used for explant cultures to avoid differential gaseous exchange and evaporation rates between explant sample wells. The outer wells were filled with PBS.
Nine groups of 8 replicates each were tested:
The explants were then cultured at 37° C./5% CO2 in a humid incubator for 6 days. Explants were fixed at room temperature for 20 minutes by adding an equal volume (0.3 mL) of 4% paraformaldehyde in PBS to each well. After washing three times with HEPES-buffered saline (HBS, 150 mM NaCl, 10 mM HEPES) the explants were stained with 10 μg/ml FITC-BS-1 lectin conjugate (BS-1 lectin specifically binds mouse endothelial cells) in HBS overnight at 4° C. The following day the explants were washed three times with HBS. Vessel outgrowths from explants were visualised by fluorescence microscopy and photographs taken for data analysis. Multiple multidepth focus fluorescent images were photographed for each explant and the photographs processed using deconvolution software so that total vessel outgrowth for each explant could be determined Total cellular growth associated with each explant was also visualised by light microscopy using a dissecting microscope and documented by photography. For ease of visualisation and analysis a composite inverted black and white image was prepared from the multiple fluorescent images of the vessel outgrowths for each explant. The number of vessel sprouts and the number of vessel branches for each explant was then counted with the person counting being blinded to the identity of each sample. The results are summarised in Table 4, and shown graphically in FIG. 1.

Row | Compound | Percent Induction (CD31 counts relative to vehicle + bFGF minus vehicle alone) [1] | Average number of blood vessels (CD31 counts) [1] | Percent Induction (blood content relative to vehicle + bFGF minus vehicle alone) [2] | Average blood content (from haemoglobin content) [2] | Average chamber weight [2] | also measured
1 | C[C@@H]1CC[C@@]2(OC1)O[C@H]1C[C@H]3[C@@H]4CC=C5C[C@@H](O[C@@H]6O[C@H](CO)[C@@H](O)[C@H](O)[C@H]6O[C@@H]6O[C@@H](C)[C@H](O)[C@@H](O)[C@H]6O)CC[C@]5(C)[C@H]4CC[C@]3(C)[C@H]1[C@@H]2C [Prosapogenin A, diosgenin Rha2, Glc] | 29% | 21 | 84% | 1.92 µL | 0.389 g | 
2 | CNC(=O)c1cc(Oc2ccc(NC(=O)Nc3ccc(Cl)c(C(F)(F)F)c3)cc2)ccn1 [Sorafenib, reference compound] | 3% | 2 | 27% | 0.92 µL | 0.322 g | 
3 | C[C@@H]1CC[C@@]2(OC1)O[C@H]1C[C@H]3[C@@H]4CC=C5C[C@@H](O[C@@H]6O[C@H](CO)[C@@H](O[C@@H]7O[C@@H](C)[C@H](O)[C@@H](O)[C@H]7O)[C@H](O)[C@H]6O[C@@H]6O[C@@H](C)[C@H](O)[C@@H](O)[C@H]6O)CC[C@]5(C)[C@H]4CC[C@]3(C)[C@H]1[C@@H]2C [Dioscin, diosgenin Rha2, [Rha4], Glc] | 49% | 35 | 45% | 1.24 µL | 0.131 g | 
4 | C[C@@H]1CC[C@@]2(OC1)O[C@H]1C[C@H]3[C@@H]4CC=C5C[C@@H](O[C@@H]6O[C@H](CO)[C@@H](O)[C@H](O)[C@H]6O)CC[C@]5(C)[C@H]4CC[C@]3(C)[C@H]1[C@@H]2C [Trillin, diosgenin-Glc] | 57% | 41 | 58% | 1.46 µL | 0.421 g | 
5 | C[C@@H]1CC[C@@]2(OC1)O[C@H]1C[C@H]3[C@@H]4CC=C5C[C@@H](O[C@@H]6O[C@H](CO)[C@@H](O[C@@H]7O[C@H](CO)[C@@H](O)[C@H](O)[C@H]7O)[C@H](O)[C@H]6O[C@@H]6O[C@@H](C)[C@H](O)[C@@H](O)[C@H]6O)CC[C@]5(C)[C@H]4CC[C@]3(C)[C@H]1[C@@H]2C [Deltonin, diosgenin Rha2, [Glc4], Glc] | 61% | 44 | 20% | 0.79 µL | 0.126 g | Branches Mean (aortic explants; 0.01 μM deltonin): 16; Sprouts Mean (aortic explants; 0.01 μM deltonin): 11; Branches Mean (aortic explants; 0.03 μM deltonin): 26; Sprouts Mean (aortic explants; 0.03 μM deltonin): 18; Branches Mean (aortic explants; 0.1 μM deltonin): 24; Sprouts Mean (aortic explants; 0.1 μM deltonin): 18; Branches Mean (aortic explants; 0.3 μM deltonin): 20; Sprouts Mean (aortic explants; 0.3 μM deltonin): 16; Branches Mean (aortic explants; 1 μM deltonin): 16; Sprouts Mean (aortic explants; 1 μM deltonin): 13; Branches Mean (aortic explants; 3 μM deltonin): 0; Sprouts Mean (aortic explants; 3 μM deltonin): 0; Branches Mean (aortic explants; 10 μM deltonin): 0; Sprouts Mean (aortic explants; 10 μM deltonin): 0; vessel branches from aortic explants in comparison to DMSO treated control explant cultures (aortic explants; at 10, 3 and 1 μM): significantly inhibited; vessel sprouts from aortic explants in comparison to DMSO treated control explant cultures (aortic explants; at 10 and 3 μM): significantly inhibited
